Source: article PMC9775322, “An Integrated Analysis of Mechanistic Insights into Biomolecular Interactions and Molecular Dynamics of Bio-Inspired Cu(II) and Zn(II) Complexes towards DNA/BSA/SARS-CoV-2 3CL^pro by Molecular Docking-Based Virtual Screening and FRET Detection” (Biomolecules, 2022)

Columns and labels:
Escherichia coli = experiment: Agar disc diffusion antibacterial test; details: for Inhibition %: A, (-) Escherichia coli, (T–C)/T × 100; for zone of inhibition at 100 µM: Escherichia coli, read-out: diameter of clear zone inhibition
Staphylococcus Aureus = experiment: Agar disc diffusion antibacterial test; details: for Inhibition %: F, (+) Staphylococcus Aureus, (T–C)/T × 100; for zone of inhibition at 100 µM: Staphylococcus aureus, read-out: diameter of clear zone inhibition
Pseudomonas aeruginosa = experiment: Agar disc diffusion antibacterial test; details: for Inhibition %: D, (-) Pseudomonas aeruginosa, (T–C)/T × 100; for zone of inhibition at 100 µM: Pseudomonas aeruginosa, read-out: diameter of clear zone inhibition
[1] = test system: Chromo bacterium violaceum; experiment: Agar disc diffusion antibacterial test; details: for Inhibition %: C, (-) Chromo bacterium violaceum, (T–C)/T × 100; for zone of inhibition at 100 µM: read-out: diameter of clear zone inhibition
Bacillus cereus = experiment: Agar disc diffusion antibacterial test; details: for zone of inhibition at 100 µM: Bacillus cereus, read-out: diameter of clear zone inhibition; for Inhibition %: G, (+) Bacillus cereus, (T–C)/T × 100
Shigella flexneri = experiment: Agar disc diffusion antibacterial test; details: for Inhibition %: E, (-) Shigella flexneri, (T–C)/T × 100; for zone of inhibition at 100 µM: Shigella flexneri, read-out: diameter of clear zone inhibition
[2] = test system: Salmonella enteric serovar typhi; experiment: Agar disc diffusion antibacterial test; assay type: cell-based; details: B; for zone of inhibition at 100 µM: 20 µL of 100 µM on 6 mm disc, Control (DMSO) = 6 mm, read-out: diameter of clear zone inhibition; for Inhibition %: (T–C)/T × 100
CT-DNA = experiment: DNA binding affinity by viscometric (hydrodynamic) titration; set-up: species or system calf; details: for Relative Specific Viscosity (η/η0)^1/3: DNA 100 µM; for Slope of (η/η0)^1/3 vs [Compound]/[DNA]: linear plot, R 0.2–1.0
Protocol: The hydrodynamic titrations were carried out for all substances along with ethidium bromide (control) at 20, 40, 60, 80, 100 µM concentrations. In the Ostwald viscometer, these substances were also separately treated with the deoxyribonucleic acid solution (100 µM).
2.2.4. Viscometry-based titration for investigation of DNA binding
The Viscometry-based titration measurements were further supportive and delivered data about the binding modes between test compound and DNA base pairs. Nevertheless, it does not deliver definite confirmation for the exact mode of interactions. The experiment performed for all test compounds and ethidium bromide (control) at various concentrations 20, 40, 60, 80, 100 µM and each compound mixed with the CT-DNA solution (100 µM) in the Ostwald viscometer. With an accuracy of 0.01 seconds, a digital stopwatch was used to measure the average flow time. Due to the enhancement of the DNA's overall contour length during the separation of base pairs at intercalation sites, the classical intercalative mode […]
Generally, the compounds may result in less positive/negative or no viscosity change if they bind with DNA base pairs via […]
major or minor grooves [ 26]. […]
compounds via intercalation.

Mucor indicus = experiment: Agar disc diffusion antifungal test; details: for Inhibition %: J, (T–C)/T × 100; for zone of inhibition at 100 µM: read-out: diameter of clear zone inhibition
Aspergillus niger = experiment: Agar disc diffusion antifungal test; details: for Inhibition %: H, (T–C)/T × 100; for zone of inhibition at 100 µM: read-out: diameter of clear zone inhibition
Candida albicans = experiment: Agar disc diffusion antifungal test; details: for Inhibition %: I, (T–C)/T × 100; for zone of inhibition at 100 µM: read-out: diameter of clear zone inhibition
[3] = test system: A549 Human lung cancer cell line; experiment: MTT cell viability assay; assay type: cell-based; details: 72 h exposure, at least three independent experiments
[4] = test system: MCF-7 Breast cancer cell line; experiment: MTT cell viability assay; assay type: cell-based; details: 72 h exposure, at least three independent experiments
[5] = test system: HepG2 Liver cancer cell line; experiment: MTT cell viability assay; assay type: cell-based; details: 72 h exposure, at least three independent experiments
[6] = test system: NHDF Normal human dermal fibroblasts cell line; experiment: MTT cell viability assay; assay type: cell-based; details: 72 h exposure
[7] = DPPH radical scavenging assay; assay type: biochemical; details: 517 nm
[8] = Hydroxyl radical scavenging assay; assay type: biochemical; details: 230 nm
[9] = Superoxide scavenging assay; assay type: biochemical; details: 590 nm
[10] = Nitric oxide scavenging assay; assay type: biochemical; details: 546 nm

## [H]/N=C(/N)N[C@H]1[C@H](O)[C@@H](O)[C@H](O[C@@H]2O[C@@H](C)[C@](O)(C=O)[C@H]2O[C@@H]2O[C@@H](CO)[C@H](O)[C@@H](O)[C@@H]2NC)[C@@H](N/C(N)=N\[H])[C@@H]1O [Streptomycin, reference compound]
Escherichia coli
  Inhibition %: 75%
  zone of inhibition at 100 µM: 24 mm
Staphylococcus Aureus
  Inhibition %: 71%
  zone of inhibition at 100 µM: 21 mm
Pseudomonas aeruginosa
  Inhibition %: 71%
  zone of inhibition at 100 µM: 21 mm
[1]
  Inhibition %: 75%
  zone of inhibition at 100 µM: 24 mm
Bacillus cereus
  zone of inhibition at 100 µM: 21 mm
  Inhibition %: 71%
Shigella flexneri
  Inhibition %: 76%
  zone of inhibition at 100 µM: 25 mm
[2]
  zone of inhibition at 100 µM: 26 mm
  Inhibition %: 77%

## CC[n+]1c(-c2ccccc2)c2cc(N)ccc2c2ccc(N)cc21 [EB, ethidium bromide, reference compound]
CT-DNA; R = [Complex]/[DNA] = 0.2
  Relative Specific Viscosity (η/η0)^1/3: 1.01
CT-DNA; R = [Complex]/[DNA] = 0.4
  Relative Specific Viscosity (η/η0)^1/3: 1.35
CT-DNA; R = [Complex]/[DNA] = 0.6
  Relative Specific Viscosity (η/η0)^1/3: 1.63
CT-DNA; R = [Complex]/[DNA] = 0.8
  Relative Specific Viscosity (η/η0)^1/3: 1.82
CT-DNA; R = [Complex]/[DNA] = 1.0
  Relative Specific Viscosity (η/η0)^1/3: 1.99
CT-DNA
  Slope of (η/η0)^1/3 vs [Compound]/[DNA]: 1.2859
CT-DNA; listed as (EB)
  Slope of (η/η0)^1/3 vs [Compound]/[DNA]: 1.286

## C[C@@H]1[C@H](O)[C@@H](C)/C=C/C=C/C=C/C=C/C=C/C=C/C=C/[C@H](O[C@@H]2O[C@H](C)[C@@H](O)[C@H](N)[C@@H]2O)C[C@@H]2O[C@](O)(C[C@@H](O)C[C@@H](O)[C@H](O)CC[C@@H](O)C[C@@H](O)CC(=O)O[C@H]1C)C[C@H](O)[C@H]2C(=O)O [Amphotericin B, reference compound]
Mucor indicus
  Inhibition %: 65%
  zone of inhibition at 100 µM: 17 mm
Aspergillus niger
  Inhibition %: 60%
  zone of inhibition at 100 µM: 15 mm
Candida albicans
  Inhibition %: 65%
  zone of inhibition at 100 µM: 17 mm

## CC(=O)N1CCN(c2ccc(OCC3COC(Cn4ccnc4)(c4ccc(Cl)cc4Cl)O3)cc2)CC1 (stereo not drawn) [Ketoconazole, reference compound]
Mucor indicus
  Inhibition %: 67%
  zone of inhibition at 100 µM: 18 mm
Aspergillus niger
  Inhibition %: 63%
  zone of inhibition at 100 µM: 16 mm
Candida albicans
  Inhibition %: 67%
  zone of inhibition at 100 µM: 18 mm

## N.N.[Cl][Pt][Cl] [Cisplatin, cisplatin, reference compound]
[3]
  IC50: 31.9 ± 1.6 µM
[4]
  IC50: 20.2 ± 1 µM
[5]
  IC50: 22.9 ± 1.1 µM
[6]
  IC50: 26.9 ± 1.3 µM

## NCC[C@H](O)C(=O)N[C@@H]1C[C@H](N)[C@@H](O[C@H]2O[C@H](CN)[C@@H](O)[C@H](O)[C@H]2O)[C@H](O)[C@H]1O[C@H]1O[C@H](CO)[C@@H](O)[C@H](N)[C@H]1O [Amikacin, reference compound]
Escherichia coli
  Inhibition %: 73%
  zone of inhibition at 100 µM: 22 mm
Staphylococcus Aureus
  Inhibition %: 70%
  zone of inhibition at 100 µM: 20 mm
Pseudomonas aeruginosa
  Inhibition %: 70%
  zone of inhibition at 100 µM: 20 mm
[1]
  Inhibition %: 75%
  zone of inhibition at 100 µM: 24 mm
Bacillus cereus
  zone of inhibition at 100 µM: 20 mm
  Inhibition %: 70%
Shigella flexneri
  Inhibition %: 70%
  zone of inhibition at 100 µM: 20 mm
[2]
  zone of inhibition at 100 µM: 22 mm
  Inhibition %: 73%

## O=C1O[C@H]([C@@H](O)CO)C(O)=C1O [Ascorbic acid, ascorbic acid, reference compound]
[7]; 40 µM
  % Inhibition, DPPH: 41.63%
[7]; 80 µM
  % Inhibition, DPPH: 53.74%
[7]; 120 µM
  % Inhibition, DPPH: 58.95%
[7]; 160 µM
  % Inhibition, DPPH: 70.86%
[7]; 200 µM
  % Inhibition, DPPH: 82.75%
[7]; 240 µM
  % Inhibition, DPPH: 85.65%
[7]
  IC50: 80 µM
[8]; 40 µM
  % Inhibition, hydroxyl radical: 20.73%
[8]; 80 µM
  % Inhibition, hydroxyl radical: 36.46%
[8]; 120 µM
  % Inhibition, hydroxyl radical: 47.87%
[8]; 160 µM
  % Inhibition, hydroxyl radical: 59.65%
[8]; 200 µM
  % Inhibition, hydroxyl radical: 65.64%
[8]; 240 µM
  % Inhibition, hydroxyl radical: 78.83%
[8]; read-out: IC50, hydroxyl radical inhibition
  IC50: 160 µM
[9]; 40 µM
  % Inhibition, superoxide: 29.64%
[9]; 80 µM
  % Inhibition, superoxide: 41.72%
[9]; 120 µM
  % Inhibition, superoxide: 55.63%
[9]; 160 µM
  % Inhibition, superoxide: 66.75%
[9]; 200 µM
  % Inhibition, superoxide: 72.55%
[9]; 240 µM
  % Inhibition, superoxide: 84.85%
[9]
  IC50: 120 µM
[10]; 40 µM
  % Inhibition, nitric oxide: 28.55%
[10]; 80 µM
  % Inhibition, nitric oxide: 35.75%
[10]; 120 µM
  % Inhibition, nitric oxide: 43.65%
[10]; 160 µM
  % Inhibition, nitric oxide: 52.68%
[10]; 200 µM
  % Inhibition, nitric oxide: 63.72%
[10]; 240 µM
  % Inhibition, nitric oxide: 72.73%
